Reference: PMC12394658, “Discovery of Zharp1-163 as a dual inhibitor of ferroptosis and necroptosis for the treatment of inflammatory disorders and kidney injury” (Cell Death Discovery, 2025)

How the values were obtained:
Assay in all cases: biochemical
Design in all cases: Kinase selectivity panel of 81 human kinases, ADP-Glo or HTRF, per cent inhibition at 1 uM
RSK1 = target: T1, RSK1 (Homo sapiens, UniProt Q15418)
T1 construct: gene RPS6KA1
Outline: (§1)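 Kinase-panel selectivity profiling of 81 kinases with compound at 1000 nM.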

DCAMKL2 = target: T2, DCAMKL2 (Homo sapiens, UniProt Q8N568)
T2 construct: gene DCLK2
Outline: as §1

p38α = target: T3, p38α (Homo sapiens, UniProt Q16539)
T3 construct: gene MAPK14
Outline: as §1

AXL = AXL (Homo sapiens, UniProt P30530)
Outline: as §1

SGK = target: T4, SGK (Homo sapiens, UniProt O00141)
T4 construct: gene SGK1
T4 sequence (O00141 whole entry): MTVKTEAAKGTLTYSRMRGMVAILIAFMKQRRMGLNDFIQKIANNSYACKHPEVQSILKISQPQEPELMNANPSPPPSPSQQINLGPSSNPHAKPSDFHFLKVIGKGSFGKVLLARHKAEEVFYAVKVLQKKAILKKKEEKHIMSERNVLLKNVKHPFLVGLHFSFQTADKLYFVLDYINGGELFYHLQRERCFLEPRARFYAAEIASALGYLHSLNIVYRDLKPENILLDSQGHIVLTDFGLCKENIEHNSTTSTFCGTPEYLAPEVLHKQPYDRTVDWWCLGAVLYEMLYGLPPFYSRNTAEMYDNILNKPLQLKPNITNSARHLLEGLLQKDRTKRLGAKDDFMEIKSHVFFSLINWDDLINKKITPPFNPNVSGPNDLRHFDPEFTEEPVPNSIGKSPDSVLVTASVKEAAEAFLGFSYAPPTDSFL
Outline: as §1

CK2α1/β = target: T5, CK2α1/β (Homo sapiens, UniProt P68400)
T5 construct: gene CSNK2A1
T5 sequence (P68400 whole entry): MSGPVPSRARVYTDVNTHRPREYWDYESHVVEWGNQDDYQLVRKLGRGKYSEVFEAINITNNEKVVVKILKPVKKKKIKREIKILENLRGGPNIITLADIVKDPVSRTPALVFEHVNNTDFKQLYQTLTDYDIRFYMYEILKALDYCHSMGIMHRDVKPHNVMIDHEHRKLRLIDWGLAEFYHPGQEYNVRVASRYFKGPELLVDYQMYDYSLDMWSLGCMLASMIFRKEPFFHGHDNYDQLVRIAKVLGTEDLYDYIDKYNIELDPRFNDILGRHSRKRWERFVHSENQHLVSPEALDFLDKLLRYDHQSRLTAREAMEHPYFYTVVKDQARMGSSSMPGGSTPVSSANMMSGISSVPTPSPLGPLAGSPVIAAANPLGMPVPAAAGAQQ
T5 sequence (P67870 whole entry partner): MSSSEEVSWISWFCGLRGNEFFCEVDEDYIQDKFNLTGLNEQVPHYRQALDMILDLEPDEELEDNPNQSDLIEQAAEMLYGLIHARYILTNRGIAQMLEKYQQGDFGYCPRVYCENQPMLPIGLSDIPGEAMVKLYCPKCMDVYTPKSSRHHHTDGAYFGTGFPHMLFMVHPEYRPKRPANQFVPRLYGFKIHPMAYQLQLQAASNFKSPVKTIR
Outline: as §1

IRAK4 = IRAK4 (Homo sapiens, UniProt Q9NWZ3)
Outline: as §1

SYK = SYK (Homo sapiens, UniProt P43405)
Outline: as §1

CDK5/p35NCK = target: T6, CDK5/p35NCK (Homo sapiens, UniProt Q00535)
T6 construct: p35NCK
Outline: as §1

GAK = GAK (Homo sapiens, UniProt O14976)
Chain of GAK (O14976 whole entry): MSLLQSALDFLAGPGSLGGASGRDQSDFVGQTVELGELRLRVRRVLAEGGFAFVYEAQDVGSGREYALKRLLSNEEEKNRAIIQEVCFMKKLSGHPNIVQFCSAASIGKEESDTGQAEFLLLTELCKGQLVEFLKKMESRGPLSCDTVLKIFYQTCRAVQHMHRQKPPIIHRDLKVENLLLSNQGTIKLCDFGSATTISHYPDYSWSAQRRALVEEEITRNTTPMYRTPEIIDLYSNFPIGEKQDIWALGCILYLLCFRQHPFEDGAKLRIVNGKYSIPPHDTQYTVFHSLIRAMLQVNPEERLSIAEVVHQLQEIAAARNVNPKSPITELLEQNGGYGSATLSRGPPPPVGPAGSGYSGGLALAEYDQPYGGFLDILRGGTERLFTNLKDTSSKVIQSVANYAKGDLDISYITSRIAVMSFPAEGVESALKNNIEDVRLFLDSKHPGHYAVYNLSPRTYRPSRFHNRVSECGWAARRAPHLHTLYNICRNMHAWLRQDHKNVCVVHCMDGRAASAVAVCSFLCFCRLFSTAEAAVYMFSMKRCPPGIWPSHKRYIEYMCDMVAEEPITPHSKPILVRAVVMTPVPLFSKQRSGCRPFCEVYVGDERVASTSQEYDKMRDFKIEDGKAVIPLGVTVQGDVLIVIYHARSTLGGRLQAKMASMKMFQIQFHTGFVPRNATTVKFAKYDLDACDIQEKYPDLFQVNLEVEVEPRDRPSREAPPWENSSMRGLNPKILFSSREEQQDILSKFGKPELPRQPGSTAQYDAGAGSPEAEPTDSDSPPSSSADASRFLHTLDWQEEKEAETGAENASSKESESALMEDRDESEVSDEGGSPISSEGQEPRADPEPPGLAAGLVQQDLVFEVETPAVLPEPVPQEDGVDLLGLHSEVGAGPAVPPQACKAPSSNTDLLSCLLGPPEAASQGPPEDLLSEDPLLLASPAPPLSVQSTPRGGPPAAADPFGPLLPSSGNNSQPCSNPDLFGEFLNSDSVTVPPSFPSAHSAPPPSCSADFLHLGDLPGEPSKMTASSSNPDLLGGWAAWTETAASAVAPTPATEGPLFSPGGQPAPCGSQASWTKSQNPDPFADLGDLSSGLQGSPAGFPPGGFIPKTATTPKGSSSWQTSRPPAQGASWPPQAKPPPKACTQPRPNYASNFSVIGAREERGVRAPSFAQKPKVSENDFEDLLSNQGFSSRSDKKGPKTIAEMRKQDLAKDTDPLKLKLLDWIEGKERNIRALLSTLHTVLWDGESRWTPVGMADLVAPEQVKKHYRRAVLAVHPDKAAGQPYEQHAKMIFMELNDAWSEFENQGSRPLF
Outline: as §1

PAK2 = PAK2 (Homo sapiens, UniProt Q13177)
Outline: as §1

IKKα = target: T7, IKKα (Homo sapiens, UniProt O15111)
T7 construct: gene CHUK
Outline: as §1

PKD2 = target: T8, PKD2 (Homo sapiens, UniProt Q9BZL6)
T8 construct: gene PRKD2
T8 sequence (Q9BZL6 whole entry): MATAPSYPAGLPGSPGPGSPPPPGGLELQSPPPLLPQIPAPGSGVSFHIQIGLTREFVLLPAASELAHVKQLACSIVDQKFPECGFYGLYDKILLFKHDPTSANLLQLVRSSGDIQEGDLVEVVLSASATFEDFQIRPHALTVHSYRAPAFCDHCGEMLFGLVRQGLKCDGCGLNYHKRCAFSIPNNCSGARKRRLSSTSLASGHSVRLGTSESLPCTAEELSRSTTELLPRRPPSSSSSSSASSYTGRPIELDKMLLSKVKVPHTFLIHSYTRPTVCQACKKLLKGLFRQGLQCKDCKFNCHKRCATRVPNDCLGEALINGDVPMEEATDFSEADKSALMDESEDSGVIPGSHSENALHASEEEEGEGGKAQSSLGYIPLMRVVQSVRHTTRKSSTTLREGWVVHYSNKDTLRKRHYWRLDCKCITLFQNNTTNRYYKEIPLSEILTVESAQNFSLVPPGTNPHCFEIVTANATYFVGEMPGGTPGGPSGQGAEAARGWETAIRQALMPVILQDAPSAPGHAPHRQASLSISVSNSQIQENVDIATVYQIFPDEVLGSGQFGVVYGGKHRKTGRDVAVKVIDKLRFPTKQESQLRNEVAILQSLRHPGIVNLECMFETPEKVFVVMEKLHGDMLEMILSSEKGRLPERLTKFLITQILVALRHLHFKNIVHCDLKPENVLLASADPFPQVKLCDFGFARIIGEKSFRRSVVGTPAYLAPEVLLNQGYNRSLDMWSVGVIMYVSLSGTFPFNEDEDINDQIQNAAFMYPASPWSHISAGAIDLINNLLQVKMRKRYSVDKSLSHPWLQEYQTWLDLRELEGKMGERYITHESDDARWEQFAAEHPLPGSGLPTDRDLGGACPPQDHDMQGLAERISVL
Outline: as §1

FGFR1 = FGFR1 (Homo sapiens, UniProt P11362)
Chain of FGFR1 (P11362 whole entry): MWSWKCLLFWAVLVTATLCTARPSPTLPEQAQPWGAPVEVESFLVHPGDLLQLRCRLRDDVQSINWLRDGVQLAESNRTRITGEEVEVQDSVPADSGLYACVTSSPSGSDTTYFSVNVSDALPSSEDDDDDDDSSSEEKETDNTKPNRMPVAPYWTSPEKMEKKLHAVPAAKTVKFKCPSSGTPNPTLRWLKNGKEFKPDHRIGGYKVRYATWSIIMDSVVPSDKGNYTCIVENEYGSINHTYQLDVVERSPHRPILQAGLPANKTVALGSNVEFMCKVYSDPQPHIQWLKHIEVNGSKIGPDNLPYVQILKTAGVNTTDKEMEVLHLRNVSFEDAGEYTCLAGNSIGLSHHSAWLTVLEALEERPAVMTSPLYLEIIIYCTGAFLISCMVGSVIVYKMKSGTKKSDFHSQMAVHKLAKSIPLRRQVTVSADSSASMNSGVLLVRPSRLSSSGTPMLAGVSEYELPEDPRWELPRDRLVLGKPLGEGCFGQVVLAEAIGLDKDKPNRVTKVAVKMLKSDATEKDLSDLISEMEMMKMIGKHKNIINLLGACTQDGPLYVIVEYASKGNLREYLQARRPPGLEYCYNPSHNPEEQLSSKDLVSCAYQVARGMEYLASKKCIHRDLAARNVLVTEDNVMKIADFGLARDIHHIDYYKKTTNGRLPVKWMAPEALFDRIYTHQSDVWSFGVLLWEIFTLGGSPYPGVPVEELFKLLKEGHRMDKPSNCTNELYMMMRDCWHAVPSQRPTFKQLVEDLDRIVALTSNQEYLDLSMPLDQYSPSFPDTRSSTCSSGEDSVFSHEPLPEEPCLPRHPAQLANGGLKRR
Outline: as §1

T1 sequence (Q15418 whole entry): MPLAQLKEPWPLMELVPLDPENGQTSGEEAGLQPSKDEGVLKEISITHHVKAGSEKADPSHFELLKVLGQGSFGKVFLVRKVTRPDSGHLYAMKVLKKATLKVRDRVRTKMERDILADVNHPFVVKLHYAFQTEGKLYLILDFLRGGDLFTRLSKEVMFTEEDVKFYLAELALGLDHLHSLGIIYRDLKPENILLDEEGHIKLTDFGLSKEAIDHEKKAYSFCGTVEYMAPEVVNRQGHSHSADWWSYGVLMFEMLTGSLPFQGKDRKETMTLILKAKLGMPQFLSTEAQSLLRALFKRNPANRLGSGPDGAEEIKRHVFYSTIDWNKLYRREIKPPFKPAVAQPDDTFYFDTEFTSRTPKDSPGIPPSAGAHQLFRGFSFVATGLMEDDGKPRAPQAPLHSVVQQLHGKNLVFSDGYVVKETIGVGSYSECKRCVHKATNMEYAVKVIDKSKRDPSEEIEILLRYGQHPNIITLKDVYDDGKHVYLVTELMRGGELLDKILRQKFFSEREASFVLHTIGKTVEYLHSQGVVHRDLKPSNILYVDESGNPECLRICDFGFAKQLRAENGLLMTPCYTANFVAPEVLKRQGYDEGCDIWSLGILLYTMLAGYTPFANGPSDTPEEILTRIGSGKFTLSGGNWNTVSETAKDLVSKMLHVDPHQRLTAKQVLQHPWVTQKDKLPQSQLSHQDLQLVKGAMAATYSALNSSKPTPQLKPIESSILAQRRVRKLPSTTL

## Nc1cn2cc(-c3cnc4c(c3)N(C(=O)OC3CCCCC3)CCO4)ccc2n1 [Zharp1-163]
RSK1; replicate Data1
  inhibition at 1 µM: 6.09%
RSK1; replicate Data2
  inhibition at 1 µM: 5.81%
DCAMKL2; replicate Data1
  inhibition at 1 µM: 5.19%
DCAMKL2; replicate Data2
  inhibition at 1 µM: 1.92%
p38α; replicate Data1
  inhibition at 1 µM: 11.8%
p38α; replicate Data2
  inhibition at 1 µM: 9.57%
AXL; replicate Data1
  inhibition at 1 µM: 10.9%
AXL; replicate Data2
  inhibition at 1 µM: 1.24%
SGK; replicate Data1
  inhibition at 1 µM: 2.39%
SGK; replicate Data2
  inhibition at 1 µM: 0.81%
CK2α1/β; replicate Data1
  inhibition at 1 µM: -12.2%
CK2α1/β; replicate Data2
  inhibition at 1 µM: 5.04%
IRAK4; replicate Data1
  inhibition at 1 µM: 8.12%
IRAK4; replicate Data2
  inhibition at 1 µM: 17.2%
SYK; replicate Data1
  inhibition at 1 µM: 5.12%
SYK; replicate Data2
  inhibition at 1 µM: 4.56%
CDK5/p35NCK; replicate Data1
  inhibition at 1 µM: 7.89%
CDK5/p35NCK; replicate Data2
  inhibition at 1 µM: 1.25%
GAK; replicate Data1
  inhibition at 1 µM: 18.2%
GAK; replicate Data2
  inhibition at 1 µM: 19.7%
PAK2; replicate Data1
  inhibition at 1 µM: -3.2%
PAK2; replicate Data2
  inhibition at 1 µM: -2.35%
IKKα; replicate Data1
  inhibition at 1 µM: 0.19%
IKKα; replicate Data2
  inhibition at 1 µM: 7.24%
PKD2; replicate Data1
  inhibition at 1 µM: 12%
PKD2; replicate Data2
  inhibition at 1 µM: 6.79%
FGFR1; replicate Data1
  inhibition at 1 µM: 2.7%
FGFR1; replicate Data2
  inhibition at 1 µM: -0.57%
